In brackets after ≈: the same amount, converted by molar mass.
How the values were obtained:
Type in all cases: functional
[1] = tested on: Mycobacterium tuberculosis; assay: Antibacterial activity against isonizaid/rifampicin-resistant Mycobacterium tuberculosis isolate FJ05120 after 18 hrs by agar dilution method; conditions: isolate FJ05120, 18 h
[2] = tested on: Mycobacterium tuberculosis; assay: Antibacterial activity against isonizaid/rifampicin/streptomycin/ethambutol-resistant Mycobacterium tuberculosis isolate FJ05436 after 18 hrs by agar dilution method; conditions: isolate FJ05436, 18 h
[3] = tested on: Mycobacterium tuberculosis; assay: Antibacterial activity against isonizaid/rifampicin/streptomycin/ethambutol-resistant Mycobacterium tuberculosis isolate FJ05195 after 18 hrs by agar dilution method; conditions: isolate FJ05195, 18 h

Molecule `CNC(=N)NCCC/C=C/CCC[C@H](C)C[C@H](C)[C@H]1OC(=O)[C@H](C)[C@H](O)/C=C/[C@H](C)[C@H](O)C[C@H](O)[C@H](C)[C@@H](O)CC[C@H](C)[C@H](O)C[C@]2(O)O[C@H](C[C@@H](O)C[C@H](OC(=O)CC(=O)O)C[C@@H](O)[C@H](C)[C@H](O)/C=C/C=C/[C@@H]1C)C[C@H](O)[C@H]2O` has an MIC [1] of 4 to 16 µg/mL (≈ 3.5 to 14 µM), an MIC [2] of 4 to 32 µg/mL (≈ 3.5 to 28 µM) and an MIC [3] of 4 to 32 µg/mL (≈ 3.5 to 28 µM).
`CNC(=N)NCCC/C=C/CCC[C@H](C)C[C@H](C)[C@H]1OC(=O)[C@H](C)[C@H](O)/C=C/[C@H](C)[C@H](O)C[C@H](O)[C@H](C)[C@@H](O)CC[C@H](C)[C@H](O)C[C@]2(O)O[C@H](C[C@@H](OC(=O)CC(=O)O)C[C@H](O)C[C@@H](O)[C@H](C)[C@H](O)/C=C/C=C/[C@@H]1C)C[C@H](O)[C@H]2O` gave an MIC [1] of 4 to 16 µg/mL (≈ 3.5 to 14 µM), an MIC [2] of 4 to 32 µg/mL (≈ 3.5 to 28 µM) and an MIC [3] of 4 to 32 µg/mL (≈ 3.5 to 28 µM).

Reference: ChEMBL document CHEMBL4130613, “Identification and Proposed Relative and Absolute Configurations of Niphimycins C-E from the Marine-Derived Streptomyces sp. IMB7-145 by Genomic Analysis” (J Nat Prod, 2018)
